From patent US8076101B2, “Method of detecting the cystic fibrosis transmembrane conductance regulator (CFTR) at cell exterior” (priority 2003, dated 2011) come the findings set out here.

What all share (assay type): cell-based
The subject of one assay is Extope-ΔF508 CFTR. The assay can be described thus: Immunofluorescence microscopy of externally labeled Extope-ΔF508 CFTR after re-incubation with protease inhibitors. The conditions noted are these: re-incubated at 37° C. for 7 hours. Here is the method:
FIG. 10B. […] Cell surface Extope-CFTR or Extope-ΔF508 CFTR were labeled with 16B12 as described in FIG. 2A. Cells were re-incubated at 37° C. for 7 hours with either lysosomal inhibitors pepstatin-A and leupeptin (Pep+Leu, each 50 μg/ml) and E64 (3.5 μg/ml) or proteasomal inhibitors lactacystin (50 μM) and MG132 (50 μM) or without drug (control) and stained for immunofluorescence microscopy. Nuclei were stained with propidium iodide.
Cells were treated with lysosomal inhibitors pepstatin-A and leupeptin as described in FIG. 5B. Extope-ΔF508 CFTR was labeled with 16B12 at the cell surface and detected 7 hours later using goat anti-mouse IgG Alexa Fluor 488 conjugate. Lysosomes were labeled with Lysotracker Red (Molecular Probes).

In assay [1] the test system is Extope-CFTR and ΔF508 CFTR. Put plainly: Chemiluminescence assay of cell surface Extope-CFTR and ΔF508 CFTR retained after reincubation. The conditions noted are these: lactacystin 25 μM, reincubated for indicated times, 8 replicates. Here is the method: FIG. 10D. […] Extope-CFTR and ΔF508 CFTR were labeled on intact pre-cooled cells on ice for 30 minutes with 16B12 mAb and cells were reincubated in the presence or absence of lactacystin (25 μM) for indicated times. Cell surface Extope-CFTR was detected in a chemiluminescence assay at indicated times using sheep anti-mouse peroxidase conjugate and chemiluminescence. Each experiment was performed with 8 replicates and standard deviations are indicated.

The subject of assay [2] is ΔF508 CFTR with modified EL2 (XT-ΔF508). Put plainly: Quantitative luminescence detection of XT-ΔF508 CFTR at surface of cells in 96 well microtiter plates. As for the experimental part:
FIG. 6. Quantitative detection of CFTR with EL2 epitope (XT-CFTR) at surface of cells grown in 96 well microtiter plates. Cells were washed, fixed and exposed to an antibody recognizing the external epitope, washed again and incubated with a horseradish peroxidase coupled second antibody and then with a peroxidase substrate that becomes luminescent after peroxidation. Luminescent signals in each well were quantitated in either a Packard Microplate Luminescence Counter or a Perkin Elmer VICTOR^2 Multilabel Counter. […] The corresponding quantitative signals are shown below.
To provide a more facile and quantifiable means of detecting EL2 modified CFTR on the cell surface, cells were plated on 96-well microtiter plates. The amount of surface epitope was measured either by luminometry or time resolved fluorescence. After incubation with a primary unlabeled mouse antibody to the epitope (HA11, Babco) and washing, a secondary horseradish peroxidase coupled antibody recognizing mouse IgG was added followed by peroxidase substrate that luminesces when peroxidized. Luminescence was measured in each well in one of two different luminescence plate readers. A strong signal is obtained in the replicate row of wild-type XT-CFTR expressing cells and signals of strengthening intensity are obtained in rows of XT-ΔF508 cells grown at 28° C. with increasing concentrations of butyrate.

The test system of the next assay is XT-ΔF508 CFTR. Put plainly: cyclic AMP stimulated 36Cl efflux (CFTR chloride channel activity). The following applies: grown at 28° C. with 2 mM sodium butyrate for 48 h; forskolin (10 μM) and IBMX (1 mM). Here is the method:
FIG. 5. CFTR chloride channel activity as monitored by ^36Cl efflux from cells expressing wild-type CFTR (◯), ΔF508 CFTR without (♦) or with (▴) 2 mM sodium butyrate or no CFTR (□). Cells were preloaded with ^36Cl and then exposed to forskolin (10 μM) and IBMX (1 mM) at time 0. The amounts of ^36Cl radioactivity released from the cells in subsequent 1 min intervals was monitored by scintillation counting.
To determine the functional capability of the EL2 modified variants, rates of cyclic AMP stimulated ^36Cl efflux from cells expressing them were measured. The rate of efflux from cells expressing wild-type XT-CFTR was similar to that with unmodified wild-type (FIG. 5).

Molecules are shown by their SMILES. “Also recorded” adds a separate entry of the source. Residues, ends and D or L forms follow the SMILES beside them. *: point of attachment. Cbz = O=C(OCc1ccccc1)*

For the compound `CC(C)C[C@H](NC(=O)[C@H]1O[C@@H]1C(=O)O)C(=O)NCCCCN=C(N)N` [E64], the “endocytic turn over of ΔF508-CFTR” value with Extope-ΔF508 CFTR (3.5 μg/ml) is “inhibit endocytic turn over”.
As to `CC(C)C[C@@H](C=O)NC(=O)[C@H](CC(C)C)NC(=O)[C@H](CC(C)C)NC(=O)OCc1ccccc1` [MG132] (Cbz-Leu-Leu-Leu-aldehyde), the “endocytic turn over of ΔF508-CFTR” value with Extope-ΔF508 CFTR (50 μM) was “inhibit endocytic turn over”.
For the compound `CC(=O)N[C@@H](CSC(=O)[C@]1([C@@H](O)C(C)C)NC(=O)[C@H](C)[C@@H]1O)C(=O)O` [lactacystin], the “endocytic turn over of ΔF508-CFTR” value in the assay on Extope-ΔF508 CFTR (50 μM) is “inhibit endocytic turn over”. Besides, the “amount of CFTR retained at the cellular surface” value in assay [1] is given as “increases the amount of CFTR retained at the cellular surface”.
Consider `CCCC(=O)[O-].[Na+]` [sodium butyrate], for which, in assay [2] (cells grown at 28° C. for 24 h, increasing concentrations of sodium butyrate), the “amount of ΔF508 CFTR with modified EL2 detected at the cell surface (luminescent signal)” value is reported as “Increasing amounts”. The “XT-ΔF508 surface luminescence signal relative to wild-type XT-CFTR” value in assay [2] (cells grown at 28° C., maximal butyrate dose) is given as “more than half that of the wild-type”. Moreover, the “36Cl efflux from ΔF508 CFTR expressing cells relative to wild-type” value with XT-ΔF508 CFTR was “more closely approaches those of wild-type; also recorded: nearly as great as from cells expressing wild-type CFTR”.
